Converted amounts (≈) assume the structure as drawn. Where two headings read alike, the source gives them in different places.
Assays:
S. aureus (SA38) [1] = conditions: cited from earlier work
P. aeruginosa (PA01) [2] = conditions: no antibacterial activity at the highest concentration tested (250 μM) ref 43; cited from earlier work
E. coli (K12) [3] = conditions: no antibacterial activity at the highest concentration tested (250 μM) ref 43; cited from earlier work
Gram-negative bacteria = tested on: Gram-negative bacteria; design: method as in doi:10.1002/slct.201700336, PMID 28203673; conditions: previously reported ref 43, 44; cited from earlier work
S. aureus (SA38) [4] = test: Minimum inhibitory concentration (MIC) assay against S. aureus; format: cell-based, Staphylococcus aureus; conditions: Staphylococcus aureus
Experimental: (§1) The antimicrobial activity of the compounds was evaluated by MIC assay using the procedure described by Clinical and Laboratory Standards Institute (CLSI). A single colony of bacteria was cultured overnight in trypticase soy broth (TSB; Oxoid, Basingstoke, UK) at 37 °C with shaking. The resulting bacterial culture was collected by centrifugation and resuspended in TSB twice. The optical density (OD) of the resulting culture was adjusted to OD660 = 0.1 in TSB (which is equivalent to 10^8 colony forming unit (CFU)/mL bacteria). It was further diluted to 10^6 CFU/mL in TSB. 100 µL of the bacterial solution was then added to wells of a 96-well plate (Costar; Sigma-Aldrich, St Louis, MO, USA) containing 100 µL serially diluted peptide mimic, with final concentration ranging from 1 to 250 µM. Wells with bacteria but no compound were used as negative control while wells with only media were set as blank. The plates were then wrapped with parafilm to prevent evaporation and incubated with shaking at 120 rpm at 37 °C for 18–24 h, and the data were recorded by measuring the OD value at 660 nm using a FLUOstar Omega (BMG Labtech, Mornington, Victoria, Australia) microplate reader. […] Each experiment was performed in triplicate and was repeated in three independent experiments.

P. aeruginosa (PA01) [5] = test: Minimum inhibitory concentration (MIC) assay against P. aeruginosa; format: cell-based; conditions: Pseudomonas aeruginosa
Experimental: as §1

E. coli (K12) [6] = test: Minimum inhibitory concentration (MIC) assay against E. coli; format: cell-based; conditions: Escherichia coli
Experimental: as §1

[7] = tested on: established S. aureus biofilms; test: Biofilm disruption assay (crystal violet staining), S. aureus; format: cell-based, Staphylococcus aureus; conditions: 4× MIC (32 μM), 24 h treatment
Experimental: (§2) Bacterial cultures (S. aureus and E. coli) were grown in Muller Hinton broth (MHB; Oxoid, Basingstoke, UK) media overnight at 37 °C with shaking at 120 rpm. Cultures were diluted (1:20) in MHB medium and 200 µL aliquots were dispensed to wells in a flat bottom 96-well plate (Costar; Sigma-Aldrich, St Louis, MO, USA). Biofilm was then grown in the 96-well plate at 37 °C overnight. After that, loosely bound cells were washed away with 1x phosphate-buffered saline (PBS) and cultures were then supplemented with different concentrations of test compounds dissolved in DMSO and incubated for a further 24 h with shaking at 120 rpm. Biofilms adhered on the plate substratum were quantified using crystal violet staining as described previously. The experiment was performed in triplicate.

[8] = tested on: preformed E. coli biofilm; test: Biofilm disruption assay (crystal violet staining), E. coli; format: cell-based, Escherichia coli; conditions: 4× MIC (64 μM), 24 h treatment
Experimental: as §2

[9] = tested on: cytoplasmic membrane of S. aureus; test: Cytoplasmic membrane permeability (diSC3-5 dye release) assay; format: cell-based, Staphylococcus aureus; conditions: 1× and 2× MIC
Experimental: Bacterial cytoplasmic membrane permeability was determined using membrane potential-sensitive dye diSC3–5 (3,3′-dipropylthiadicarbocyanine iodide), which penetrates inside bacterial cells depending on the membrane potential gradient of the cytoplasmic membrane. The procedure of this assay follows the method previously described by Wu et al. with slight modifications. Bacteria were grown in MHB to mid-log phase by incubating with shaking at 37 °C for […]. Following incubation, bacteria were washed with 5 mM HEPES containing 20 mM glucose at pH 7.2 and resuspended in the same buffer to an OD600 0.05–0.06 (yielding a final concentration of 10^7 CFU/mL). The dye diSC3–5 was added at 4 μM to the bacterial suspension. The suspensions were incubated at room temperature for 1 h in darkness for maximum dye take-up by the bacterial cells. 100 mM KCl was then added to balance the K^+ outside and inside the bacterial cell. 100 μL of bacterial suspension was added in a 96-well microtiter plate and with equal volume of antimicrobial compounds. DMSO (10%) was set as a positive control while dye and only bacterial cells were set as negative control. Fluorescence due to release of dye was measured with a luminescence spectrophotometer at 3 min intervals at an excitation wavelength of 621 nm and an emission wavelength of 670 nm.

S. aureus = test: Time-kill kinetic / cell viability count assay; format: cell-based, Staphylococcus aureus
Experimental: The number of viable cells was confirmed by serially diluting aliquots of bacteria in D/E neutralizing broth (Remel, Lenexa, KS, USA) and plating onto Tryptic Soy Agar (Oxoid, Basingstoke, UK) containing phosphatidylcholine (0.7 g/L) and Tween 80 (5 mL/L). The plates were incubated at 37 °C overnight and numbers of live bacteria were enumerated and expressed as CFU/mL. The experiment was performed in triplicate.

[10] = Tethered bilayer lipid membranes (tBLMs) assay, zwitterionic membrane
Experimental: (§3) Changes in membrane conduction and capacitance were measured using tethered bilayer lipid membranes (tBLMs) in association with AC electrical impedance spectroscopy techniques. Sparsely tethered tBLMs were prepared using a zwitterionic 1-palmitoyl-2-oleoyl-glycero-3-phosphocholine (POPC) (Avanti Lipids, USA) or a mixture of 30% palmitoyl-oleoyl-phosphatidylglycerol (POPG) (Avanti Lipids, USA) lipids with 70% POPC in order to create a negatively charged tBLM [66, 67]. To do this, gold-patterned polycarbonate slides were coated with tethered benzyl-disulfide (tetra-ethyleneglycol) n = 2 C20-phytanyl tethers:benzyl-disulfide-tetra-ethyleneglycol-OH spacers in the ratio of 1:10 (SDx Tethered Membranes Pty Ltd., Australia). A 3 mM solution of a mobile lipid phase POPC, or a 3 mM solution of mobile phase POPC/POPG (70:30), (Avanti Lipids, USA) in 100% ethanol was then incubated with the tethering chemistries. Lipids were left to incubate with the tethering chemistries for 2 min before being washed with 3 × […] of phosphate-buffered saline (PBS). Prior to the addition of the compounds, membrane stability was confirmed by 5 × 100 µL washes of the PBS vehicle. AC electrical impedance spectrometry (EIS) was then used to monitor any changes in membrane impedances as a result of adding the test compounds in increasing concentrations.
(§4) For EIS measures, a 50 mV peak-to-peak AC excitation from 0.1 to 2000 Hz with four steps per decade were recorded using a TethaPod™ operated with TethaQuick™ software (SDx Tethered Membranes Pty Ltd., Australia). The data were fitted to an equivalent circuit consisting of a Constant Phase Element (CPE), to represent the imperfect capacitance of the gold tethering electrode, in series with a Resistor/Capacitor network to represent the lipid bilayer membrane. Fitting of the phase and impedance data to the equivalent circuit was completed with a proprietary adaptation of a Lev Mar fitting routine. To account for variations in basal membrane conditions, data are normalised to a baseline conduction and capacitance values directly before the addition of each compound.

[11] = Tethered bilayer lipid membranes (tBLMs) assay, negatively charged membrane
Experimental: as §3, §4

[12] = tested on: MRC-5 normal human lung fibroblasts; test: MTT toxicity assay; format: cell-based; conditions: Homo sapiens, MRC5, 72 h, 72 h drug incubation, read-out: IC50 against MRC-5 normal human lung fibroblasts
Experimental: The toxicity of the compounds was measured using an MTT (3-(4,5-dimethylthiazol-2-yl)-2,5-diphenyltetrazolium bromide) (Sigma Aldrich, St Louis, MO, USA) colorimetric assay against normal human lung fibroblasts MRC-5 cells. The cells were cultured in minimal essential medium (MEM; Sigma Aldrich, St Louis, MO, USA) containing 10% foetal bovine serum (FBS). The cells were maintained at 37 °C in 5% CO2 as an adherent monolayer and was passaged upon reaching confluence by standard cell culture techniques. MRC-5 cells were seeded at 5000 cells/well in 96-well plates to ensure full confluence (quiescence) and left overnight to adhere to the plate wells. The adherent cells were treated with 1–500 µM of compounds by dissolving in DMSO and serially diluting with media. The final concentration of DMSO was 0.5% (v/v). After 72 h drug incubation, […] stock MTT solution (5 mg/mL) was added and the cells were incubated for another 3.5–4 h. MTT solution-containing media was carefully aspirated without displacing the purple crystals from the bottom and […] acid-isopropanol was added to all wells and mixed slowly by shaking with an orbital shaker to dissolve the dark blue crystals. The metabolic activity was detected by spectrophotometric analysis by assessing the read absorbance (590/620 nm) on an EnSight plate reader (PerkinElmer, Waltham, MA, USA) and cell viability was expressed as a percentage of untreated control cells. The determination of IC50 values was performed using GraphPad Prism 6 (GraphPad, San Diego, CA, USA). Each experiment was performed in triplicate and was repeated in three independent experiments.

[13] = tested on: established S. aureus biofilms; design: method as in PMID 27405275; conditions: 4× its MIC (32 μM) ref 52; cited from earlier work

Compound: CCCCCCCCS(=O)(=O)Nc1ccc(Br)cc1C(=O)C(=O)NCCC[N+](C)(C)C [Compound 4b]
- MIC against S. aureus (S. aureus (SA38) [1]; previously synthesised N-sulfonylphenylglyoxamide iodide salts ref 43): 63 µM
- MIC against P. aeruginosa (P. aeruginosa (PA01) [2]): > 250 µM
- MIC against E. coli (E. coli (K12) [3]): > 250 µM
- antibacterial activity against Gram-negative bacteria (Gram-negative bacteria): no antibacterial activity

Compound: N=C(N)NCCCNC(=O)C(=O)c1cc(Br)ccc1NC(=O)c1ccc2ccccc2c1 [Compound 5]
- MIC against S. aureus (S. aureus (SA38) [1]; previously reported ref 44): 12 µM (≈ 5.96 µg/mL)
- antibacterial activity against Gram-negative bacteria (Gram-negative bacteria): no antibacterial activity

Compound: CCCCCCCCS(=O)(=O)Nc1ccc(-c2ccc(Cl)cc2)cc1C(=O)C(=O)NCCC[N+](C)(C)C.[I-] [Compound 15c, 3-(2-(4’-Chloro-4-(octylsulfonamido)-[1,1’-biphenyl]-3-yl)-2-oxoacetamido)-N,N,N-trimethylpropan-1-aminium iodide]
- MIC (S. aureus (SA38) [4]): 8 µM
- MIC (P. aeruginosa (PA01) [5]): 63 µM
- MIC (E. coli (K12) [6]): 16 µM
- disruption of preformed S. aureus biofilms [7]: 35%
- disruption of preformed E. coli biofilm [8]: insignificant amount
- increase in diSC3-5 fluorescence intensity (cytoplasmic membrane disruption) [9]: largest increase in fluorescence intensity
- reduction in bacterial numbers (S. aureus; 1× MIC): 1 log
- reduction in bacterial numbers (S. aureus; 2× MIC): 2 log
- shift in membrane conductance ([10]; zwitterionic POPC tBLMs, concentrations as low as 100 nM): 2.5 ×
- changes of membrane conduction ([10]; zwitterionic membrane, higher concentrations (1–100 μM)): more pronounced
- membrane capacitance ([10]; zwitterionic tBLMs, saturating concentrations): large increase
- changes in membrane conductance ([11]; 30% POPG membranes, concentrations <1 μM): notably absent
- changes of membrane conduction ([11]; negatively charged membranes, higher concentrations (1–100 μM), compared to zwitterionic): lower
- membrane capacitance ([11]; negatively charged tBLMs, saturating concentrations): large increase
- IC50 [12]: 95.8 µM

Compound: CN(C)CCCNC(=O)C(=O)c1cc(-c2ccccc2)ccc1NC(=O)c1ccc2ccccc2c1 [Compound 25, N-(3-(2-((3-(Dimethylamino)propyl)amino)-2-oxoacetyl)-[1,1’-biphenyl]-4-yl)-2-naphthamide]
- MIC (S. aureus (SA38) [4]): > 250 µM
- melting point: 151.6 to 151.8 °C

Compound: LL-37: a natural antimicrobial peptide that is being tested in phase II clinical trials (LLGDFFRKSKEKIGKEFKRIVQRIKDFLRNLVPRTES; Antibacterial peptide LL-37; UniProt P49913 134-170, looked up)
- disruption of mature S. aureus biofilms [13]: approximately 40%

Source: PMC7555970, “Design, Synthesis and Biological Evaluation of Biphenylglyoxamide-Based Small Molecular Antimicrobial Peptide Mimics as Antibacterial Agents” (International Journal of Molecular Sciences, 2020)
